Assay [1] concerns the target T1, IGF-1R (Homo sapiens (Human), UniProt P08069). Kind of assay: Example B-1: IGF-1R Assay (PC3 cells, IGF1 stimulation, AlphaLISA). In kind it is cell-based. The following applies: 200 ng/mL IGF1 stimulation, read-out: Biological Activity against IGF-1R IC50. In a few lines: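 PC3 cells were serum-starved 2 h, treated with serially diluted compounds for 2 h, then stimulated with IGF1 (200 ng/mL final) for 30 min. Lysates were read by AlphaLISA; % inhibition was calculated relative to vehicle and EC80 controls, with IC50 values binned into ranges.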
Target sequence in this assay (P08069 31-1367): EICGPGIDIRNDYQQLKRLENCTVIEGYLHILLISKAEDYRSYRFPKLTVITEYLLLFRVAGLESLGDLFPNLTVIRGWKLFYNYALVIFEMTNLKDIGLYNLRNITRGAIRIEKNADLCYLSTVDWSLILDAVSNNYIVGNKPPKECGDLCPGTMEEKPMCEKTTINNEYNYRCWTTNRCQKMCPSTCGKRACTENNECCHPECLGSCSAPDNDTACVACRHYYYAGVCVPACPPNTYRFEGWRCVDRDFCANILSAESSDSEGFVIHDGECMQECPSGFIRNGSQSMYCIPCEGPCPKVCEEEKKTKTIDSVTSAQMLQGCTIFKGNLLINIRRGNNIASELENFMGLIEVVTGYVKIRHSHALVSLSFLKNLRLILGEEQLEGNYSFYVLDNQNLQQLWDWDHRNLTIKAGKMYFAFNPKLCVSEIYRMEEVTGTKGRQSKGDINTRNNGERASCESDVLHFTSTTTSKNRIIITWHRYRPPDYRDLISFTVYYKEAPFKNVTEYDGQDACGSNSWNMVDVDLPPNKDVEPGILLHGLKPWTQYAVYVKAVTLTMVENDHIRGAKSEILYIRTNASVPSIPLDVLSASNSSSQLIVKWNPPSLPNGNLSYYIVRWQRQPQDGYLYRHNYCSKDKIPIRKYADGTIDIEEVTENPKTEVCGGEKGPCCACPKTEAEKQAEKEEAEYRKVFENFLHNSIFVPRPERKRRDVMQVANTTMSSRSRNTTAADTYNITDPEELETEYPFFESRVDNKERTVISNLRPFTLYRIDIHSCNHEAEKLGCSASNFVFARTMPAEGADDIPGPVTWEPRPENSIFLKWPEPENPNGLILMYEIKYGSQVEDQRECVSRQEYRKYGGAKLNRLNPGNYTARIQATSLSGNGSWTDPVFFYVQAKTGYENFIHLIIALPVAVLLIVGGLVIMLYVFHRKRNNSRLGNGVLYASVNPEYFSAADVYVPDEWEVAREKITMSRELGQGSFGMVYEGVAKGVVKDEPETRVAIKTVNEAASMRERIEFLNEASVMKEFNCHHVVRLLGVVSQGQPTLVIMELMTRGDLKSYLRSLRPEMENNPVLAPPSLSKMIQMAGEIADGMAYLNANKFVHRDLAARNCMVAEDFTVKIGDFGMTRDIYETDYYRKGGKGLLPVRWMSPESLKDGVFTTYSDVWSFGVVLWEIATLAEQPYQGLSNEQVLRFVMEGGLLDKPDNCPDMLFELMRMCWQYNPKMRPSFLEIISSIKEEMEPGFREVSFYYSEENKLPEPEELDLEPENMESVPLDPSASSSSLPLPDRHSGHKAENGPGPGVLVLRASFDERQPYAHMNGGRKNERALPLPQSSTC

The target in assay [2] is T1, IGF-1R. Kind of assay: Example B-2: IGF-1R Assay (PathHunter cell lines, EC80 agonist challenge). The class given is cell-based. The following applies: read-out: IC50 (Biological Activity against IGF-1R). The protocol:
PathHunter cell lines were expanded from freezer stocks according to standard procedures. Cells were seeded in a total volume of 20 μL into white walled, 384-well microplates and incubated for the appropriate time prior to testing.
Cells are pre-incubated with compound followed by EC80 agonist challenge as follows: • 1. Intermediate dilution of sample stocks was performed to generate 5× sample in assay buffer. • 2. 5 μL of 5× sample was added to cells and incubated at 37° C. for 60 minutes. Vehicle concentration was 1%. • 3. 5 μL of 6×EC80 agonist in assay buffer was added to the cells and incubated at room temperature for 3 hours.
Assay signal was generated through a single addition of 12.5 or 15 μL (50% v/v) of PathHunter Detection reagent cocktail for agonist and antagonist assays respectively, followed by a one hour incubation at room temperature. Microplates were read following signal generation with a PerkinElmer Envision™ instrument for chemilumine-scent signal detection.
Compound activity was analyzed using CBIS data analysis suite (ChemInnovation, CA). Percentage inhibition was calculated using the following formula: % Inhibition=100%×(1−(mean RLU of test sample−mean RLU of vehicle control)/(mean RLU of EC80 control−mean RLU of vehicle control)). The activity for representative examples of the invention is shown in the following table, wherein A: IC50≤500 nM; B: 500 nM<IC50≤2 μM; C: […]≤10 μM; D: IC50>[…].
Target sequence in this assay (P08069 31-1367, species assumed): as the sequence (P08069 31-1367) above

pIC50: −log10 of the molar value.

Regarding `CN(C)CC(=O)N1CCc2ccc(Nc3nccc(Nc4cnc5c(F)c(F)ccc5c4)n3)cc21` [Compound 138, 1-(6-((4-((7,8-difluoroquinolin-3-yl)amino)pyrimidin-2-yl)amino)indolin-1-yl)-2-(dimethylamino)ethan-1-one], the pIC50 in assay [1] and in assay [2] was no less than 6.30 each time.
`COc1cc(C2CCOCC2)ccc1Nc1nccc(Nc2cc3cccc(F)c3[nH]c2=O)n1` [Compound 220, 8-fluoro-3-{2-[2-methoxy-4-(tetrahydro-2H-pyran-4-yl)phenylamino]-4-pyrimidinylamino}-1,2-dihydro-2-quinolinone]: the pIC50 (as a rule, −log10 of the IC50, conventionally taken in molar units) in assay [1] was no less than 6.30; in assay [2], 5.70 to 6.30.
Taken in the same sequence, the figures for `COc1cc(C2CCN(CC#N)CC2)ncc1Nc1nccc(Nc2cc3cccc(F)c3[nH]c2=O)n1` [Compound 211, (4-{5-[4-(8-fluoro-2-oxo-1,2-dihydro-3-quinolylamino)-2-pyrimidinylamino]-4-methoxy-2-pyridyl}-1-piperidyl)acetonitrile] were no less than 6.30 and no less than 6.30.
Taken in the same sequence, the figures for `CN1CC(N2CCc3ccc(Nc4nccc(Nc5cnc6ccccc6c5)n4)cc32)C1` [Compound 139, N2-(1-(1-methylazetidin-3-yl)indolin-6-yl)-N4-(quinolin-3-yl)pyrimidine-2,4-diamine] were no less than 6.30 and no less than 6.30.
Taken in the same sequence, the figures for `COc1cc(N2CCNC(C(F)F)C2)ncc1Nc1nccc(Nc2cc3cccc(F)c3[nH]c2=O)n1` (stereo not shown) [Compound 218, 3-(2-{6-[3-(difluoromethyl)-1-piperazinyl]-4-methoxy-3-pyridylamino}-4-pyrimidinylamino)-8-fluoro-1,2-dihydro-2-quinolinone] were no less than 6.30 and 5.70 to 6.30.
Regarding `CN(C)CC1COc2cc(Nc3nccc(Nc4cnc5ccc(C(F)F)cc5c4)n3)ccc2O1` (stereo not shown) [Compound 497, 4-[6-(difluoromethyl)-3-quinolylamino]-2-{2-[(dimethylamino)methyl]-2,3-dihydro-1,4-benzodioxin-6-ylamino}pyrimidine], the pIC50 in assay [1] and in assay [2] was no less than 6.30 in each case.
For the compound `COc1cc(Nc2nccc(Nc3cnc4ccc(Cl)cc4c3)n2)ccc1OCCCN1CCCCC1` [Compound 196, 4-(6-chloro-3-quinolylamino)-2-[3-methoxy-4-(3-piperidinopropoxy)phenylamino]pyrimidine], the pIC50 in assay [1] and in assay [2] was no less than 6.30 in each case.
As to `CN(C)CC1COc2ncc(Nc3nccc(Nc4cnc5ccc(Cl)cc5c4)n3)cc2O1` (stereo not shown) [Compound 500, 4-(6-chloro-3-quinolylamino)-2-{2-[(dimethylamino)methyl]-2,3-dihydro-1,4-dioxa-5-aza-7-naphthylamino}pyrimidine], the pIC50 in assay [1] is 5.00 to 5.70; in assay [2], 5.70 to 6.30.
Taken in the same sequence, the figures for `COc1cc(Nc2nccc(Nc3cnc4ccccc4c3)n2)ccc1O[C@H]1CC[C@H](N(C)C)CC1` [Compound 17, 2-{3-methoxy-4-[(1r,4r)-4-(dimethylamino)cyclohexyloxy]phenylamino}-4-(3-quinolylamino)pyrimidine] were no less than 6.30 and no less than 6.30.
For the compound `CN(C)CC(=O)N1CCOc2ccc(Nc3nccc(Nc4cnc5cc(F)c(F)cc5c4)n3)cc21` [Compound 149, 1-(6-((4-((6,7-difluoroquinolin-3-yl)amino)pyrimidin-2-yl)amino)-2,3-dihydro-4H-benzo[b][1.4]oxazin-4-yl)-2-(dimethylamino)ethan-1-one], the pIC50 in assay [1] and in assay [2] was no less than 6.30 in each case.
For `CN(C)CC(=O)N1CCOc2cc(Nc3nccc(Nc4cnc5cc(F)c(F)cc5c4)n3)ccc21` [Compound 152, 1-(7-((4-((6,7-difluoroquinolin-3-yl)amino)pyrimidin-2-yl)amino)-2,3-dihydro-4H-benzo[b][1.4]oxazin-4-yl)-2-(dimethylamino)ethan-1-one], the pIC50 in assay [1] and in assay [2] was no less than 6.30 throughout.
Turning to `CN(C)CC(=O)N1CCc2ccc(Nc3nccc(Nc4cnc5ccccc5c4)n3)cc21` [Compound 92, 2-(dimethylamino)-1-{6-[4-(3-quinolylamino)-2-pyrimidinylamino]-1-indolinyl}-1-ethanone], the pIC50 in assay [1] and in assay [2] was no less than 6.30 in each case.
As to `CN(C)CC(=O)N1CCc2ccc(Nc3nccc(Nc4cnc5ccc(Cl)cc5c4)n3)cc21` [Compound 129, 1-(6-((4-((6-chloroquinolin-3-yl)amino)pyrimidin-2-yl)amino)indolin-1-yl)-2-(dimethylamino)ethan-1-one], the pIC50 in assay [1] and in assay [2] was no less than 6.30 in each case.
As for `COc1cc(C2CCOCC2)ncc1Nc1nccc(Nc2cc3cccc(F)c3[nH]c2=O)n1` [Compound 214, 8-fluoro-3-{2-[4-methoxy-6-(tetrahydro-2H-pyran-4-yl)-3-pyridylamino]-4-pyrimidinylamino}-1,2-dihydro-2-quinolinone], the pIC50 in assay [1] and in assay [2] was no less than 6.30 throughout.
Take `COc1cc(Nc2nccc(Nc3cnc4ccc(Cl)cc4c3)n2)ccc1O[C@H]1C[C@H](N(C)C)C1` [Compound 195, 4-(6-chloro-3-quinolylamino)-2-{3-methoxy-4-[(1r,3r)-3-(dimethylamino)cyclobutoxy]phenylamino}pyrimidine]: the pIC50 in assay [1] and in assay [2] was no less than 6.30 each time.
`CN(C)CC(=O)N1CCc2cc(Nc3nccc(Nc4cnc5cc(F)c(F)cc5c4)n3)cnc21` [Compound 498, 1-{5-[4-(6,7-difluoro-3-quinolylamino)-2-pyrimidinylamino]-1,7-diaza-1-indanyl}-2-(dimethylamino)-1-ethanone]: the pIC50 in assay [1] and in assay [2] was 5.70 to 6.30 in each case.
Consider `CN(C)CCN1CCc2ccc(Nc3nccc(Nc4cnc5ccccc5c4)n3)cc21` [Compound 143, N2-(1-(2-(dimethylamino)ethyl)indolin-6-yl)-N4-(quinolin-3-yl)pyrimidine-2,4-diamine], for which the pIC50 in assay [1] and in assay [2] was no less than 6.30 in each case.
In the case of `COc1cc(Nc2nccc(Nc3cnc4ccccc4c3)n2)ccc1O[C@H]1C[C@@H](N(C)C)C1` [Compound 204, 2-{3-methoxy-4-[(1s,3s)-3-(dimethylamino)cyclobutoxy]phenylamino}-4-(3-quinolylamino)pyrimidine], the pIC50 in assay [1] and in assay [2] was no less than 6.30 each time.
In the case of `CN1CCOc2ccc(Nc3nccc(Nc4cnc5cc(F)c(F)cc5c4)n3)cc21` [Compound 150, N4-(6,7-difluoroquinolin-3-yl)-N2-(4-methyl-3,4-dihydro-2H-benzo[b][1,4]oxazin-6-yl)pyrimidine-2,4-diamine], the pIC50 in assay [1] and in assay [2] was 5.70 to 6.30 in each case.
As for `COc1cc(Nc2nccc(Nc3cnc4ccccc4c3)n2)ccc1N1CCN(C)CC1` [Compound 94, 2-[3-methoxy-4-(4-methyl-1-piperazinyl)phenylamino]-4-(3-quinolylamino)pyrimidine], the pIC50 in assay [1] and in assay [2] was no less than 6.30 throughout.
Turning to `COc1cc(Nc2nccc(Nc3cc4cc(Cl)ccc4[nH]c3=O)n2)ccc1O[C@H]1C[C@H](N(C)C)C1` [Compound 109, 6-chloro-3-(2-{3-methoxy-4-[(1r,3r)-3-(dimethylamino)cyclobutoxy]phenyl-amino}-4-pyrimidinylamino)-1,2-dihydro-2-quinolinone], the pIC50 was no less than 6.30 in assay [1] and 5.70 to 6.30 in assay [2].
In the case of `COc1cc(Nc2nccc(Nc3cnc4ccccc4c3)n2)ccc1O[C@H]1C[C@@H](N2CCOCC2)C1` [Compound 21, 2-{3-methoxy-4-[(1s,3s)-3-morpholinocyclobutoxy]phenylamino}-4-(3-quinolylamino)pyrimidine], the pIC50 in assay [1] and in assay [2] was no less than 6.30 throughout.
With `COc1cc(Nc2nccc(Nc3cc4cccc(F)c4[nH]c3=O)n2)ccc1C1CCOCC1` [Compound 219, 8-fluoro-3-{2-[3-methoxy-4-(tetrahydro-2H-pyran-4-yl)phenylamino]-4-pyrimidinylamino}-1,2-dihydro-2-quinolinone], the pIC50 in assay [1] is no less than 6.30; in assay [2], less than 5.00.
Taken in the same sequence, the figures for `c1ccc2ncc(Nc3ccnc(Nc4ccc5c(ccn5CC5CCOCC5)c4)n3)cc2c1` [Compound 501, 4-(3-quinolylamino)-2-{1-[(tetrahydro-2H-pyran-4-yl)methyl]-5-indolylamino}pyrimidine] were 5.70 to 6.30 and 5.70 to 6.30.
As to `COc1cc(Nc2nccc(Nc3cc4cccc(F)c4[nH]c3=O)n2)cnc1N1CCC(C)(O)CC1` [Compound 159, 8-fluoro-3-((2-((6-(4-hydroxy-4-methylpiperidin-1-yl)-5-methoxypyridin-3-yl)amino)pyrimidin-4-yl)amino)quinolin-2(1H)-one], the pIC50 in assay [1] is no less than 6.30; in assay [2], 5.70 to 6.30.
For the compound `COc1cc(Nc2nccc(Nc3cnc4ccc(C(F)F)cc4c3)n2)ccc1O[C@H]1C[C@H](N(C)C)C1` [Compound 162, 4-[6-(difluoromethyl)-3-quinolylamino]-2-{3-methoxy-4-[(1r,3r)-3-(dimethylamino)cyclobutoxy]phenylamino}pyrimidine], the values for the pIC50 in assay [1] and in assay [2] were no less than 6.30 and 5.70 to 6.30, respectively.
